Results as given in article PMC10447463, “Data-mining unveils structure–property–activity correlation of viral infectivity enhancing self-assembling peptides” (Nature Communications, 2023).
Several values for one entry are separate records, joined by “and”; a condition that tells them apart may be missing. Equal values may be shown once. Read-outs that look alike come from different tables or passages of the source.

Tests used:
[1] = assay type: physicochemical; set-up: key to Fibril / Fibril Formation / TEM 2cat / Fibril: 1 = fibrils present; 0 non-fibrillar structures
[2] = tested on: HIV-1 infection of TZM-bl cells; experiment: HIV-1 infectivity enhancement assay, β-galactosidase luminescence; assay type: cell-based; conditions: for Log10 Inf. rel. to EF-C: log10 of HIV-1 infection of TZM-bl cells relative to EF-C, Fig S15 source data; for Rel-to EFC / n-fold to virus: Fig S8 panels B, D; for Log10 Infection Rel EF-C: HIV-1 infection of TZM-bl cells
[3] = β-sheet content by ATR-FT-IR; assay type: physicochemical
In short: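 In the conversion assay, unconverted peptide passing a 3 kDa membrane at 4 °C was labelled with fluorescamine alongside unfiltered PNF, both in DMSO, and read at 365/470 nm after 20 min at room temperature. β-sheet content relied on ATR FT-IR of lyophilized fibril powder.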

[4] = assay type: physicochemical
In short: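 Preformed peptide fibrils (1 mg/mL) mixed with 50 µM ThT in PBS, 15 min at RT, fluorescence ex 440/em 488 nm versus PBS blank, triplicates. Zeta potential: peptides at 1 mg/mL in PBS pH 7.4, aged 1 d at RT, diluted in 1 mM KCl, Smoluchowski from electrophoretic mobility.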

[5] = Feb2021, Log10 of infectivity relative to EF-C
[6] = Feb2021, figures match the 1.3 µM column
[7] = Feb2021, infectivity enhancement relative to EF-C
[8] = Feb2021, infectivity relative to virus only
[9] = Feb2021, n-fold infectivity relative to EF-C
[10] = Feb2021 run, infectivity n-fold relative to virus alone
[11] = Feb2021 run, log10 of infectivity relative to EF-C
[12] = Feb2021 run, n-fold infectivity relative to EF-C
[13] = infectivity class (low / medium / high) of each library peptide, main list in c1-c6, same classes repeated in sub-lists of sequences containing the hydrophobicity/charge patterns P+,H0,P+,H0,P0,H0,P0, P+,H0,P0,H0,P0,H0,P0, P+,H0,P0,H0
[14] = ThT fluorescence relative to blank (42.1851851851852 a.u.)
[15] = ThT fluorescence relative to blank, blank = 42.1851851851852
[16] = relative to blank 42.1851851851852 a.u.
[17] = Feb2021, 1.3 µM value relative to virus only (0 µM)
[18] = Feb2021, n-fold enhancement relative to EF-C
[19] = Feb2021, unrounded values of the 1.3 µM column
[20] = Feb2021, log10 of infectivity relative to EF-C
[21] = infectivity enhancement relative to EF-C
[22] = infectivity n-fold relative to virus alone
[23] = infectivity class (low / medium / high) of the peptide in the sequence-pattern analysis, Fig. S22-A4, class limits not given
[24] = infectivity enhancement relative to EF-C (=1), Feb2021 run
[25] = infectivity n-fold relative to virus only, Feb2021 run
[26] = log10 of infectivity relative to EF-C, Feb2021 run

Substance	TEM: 1= fibrils, 0= aggregates (micelle), 0.5 = aggregates and fibrils, -1 = nothing obersved, STD prep [1]	Log10 of Rel to EFC (Feb2021) [2, 5]	Absolute Infectivity / RLU /s (Feb2021) [2, 6]	Rel-to EFC (Feb-2021) [2, 7]	n-fold to virus (Feb2021) [2, 8]	Rel-to EFC (Feb-2021) [2, 9]	n-fold to virus (Feb2021) [2, 10]	Log10 of Rel to EFC (Feb2021) [2, 11]	Rel-to EFC (Feb-2021) [2, 12]	infectivity [2, 13]	Log10 Inf. rel. to EF-C ([2]; asymmetric std dev errors)	FTIR ß-sheet content/ % ([3]; ATR-FT-IR)	Tht rel to blank (42.1851851851852) [4, 14]	Tht rel to blank (42.1851851851852) [4, 15]	Tht category (> 1.5 to blank = +) ([4]; category 1/0)	Tht rel to blank (42.1851851851852) [4, 16]	n-fold to virus (Feb2021) [2, 17]	Rel-to EFC (Feb-2021) [2, 18]	Absolute Infectivity / RLU /s (Feb2021) [2, 19]	FTIR ß-sheet content/ % [3]	also measured
KFKFQFW [TM71]	1	-0.7899	4953 RLU /s	0.1622	6.817	0.1622	6.817	-0.7899	0.1622	medium	-0.7899	0%	3.529	3.529	1 (ThT. Cat is 1, if Rel. ThT >2)	3.529	–	–	–	–	–
KIKIQI [JJA4]	0.5	-1.169	–	–	–	0.06771	2.845	-1.169	0.06771	low	-1.169	39% and 38.6%	1.097	–	0 (ThT-inactive (N-Fold <2))	1.097	2.845	0.06771	550 RLU /s	38.6%	–
KIKIQIC [TM112 / CN11]	1	-0.2164	9447 RLU /s	0.6076	25.53	0.6076	–	–	–	medium	-0.2164	53% and 52.93%	4.12	4.12	1 (ThT. Cat is 1, if Rel. ThT >2)	–	–	0.6076	–	–	Log10 of Rel to EFC (Feb2021) [2, 20]: -0.2164; Rel-to EFC [2, 21]: 0.6076; n-fold to virus [2, 22]: 25.53; Tht category (> 1.5 to blank = +) ([4]; FigS26): 1 (Tht category (> 1.5 to blank = +))
KIKIQINM [JGB2]	1	-0.4404	–	–	–	0.3627	15.24	-0.4404	0.3627	medium	-0.4404	41%	1.587	–	0 (ThT-inactive (N-Fold <2))	1.587	15.24	0.3627	2947 RLU /s	41%	–
KIKIQINMWQ [JG1]	1	-0.5276	–	–	–	0.2968	12.47	-0.5276	0.2968	medium	-0.5276	42% and 42.41%	5.939	–	1 (ThT. Cat is 1, if Rel. ThT >2)	5.939	12.47	0.2968	6650 RLU /s	42.41%	TEM: 1= fibrils, 0= aggregates (micelle), 0.5 = aggregates and fibrils, -1 = nothing obersved, STD prep ([1]; FigS26): 1; Log10 of Rel to EFC (Feb2021) [2, 20]: -0.5276; Tht category (> 1.5 to blank = +) ([4]; FigS26): 1 (Tht category (> 1.5 to blank = +))
KIKQII [msis21]	0	-2.308	100 RLU /s	–	0.2069	0.004924	–	–	–	–	-2.308	39% and 38.67%	1.001	1.001	0 (ThT-inactive (N-Fold <2))	–	–	0.004924	–	38.67%	infectivity [2, 23]: low; Rel-to EFC (Feb-2021) [2, 24]: 0.004924; n-fold to virus (Feb2021) [2, 25]: 0.2069; Log10 of Rel to EFC (Feb2021) [2, 26]: -2.308
KIKQIINM [JGA2]	1	-0.3458	–	–	–	–	–	–	–	medium	-0.3458	44%	1.176	–	–	–	–	0.451	–	44%	Rel-to EFC (Feb-2021) [2, 24]: 0.451; n-fold to virus (Feb2021) [2, 25]: 18.95; Log10 of Rel to EFC (Feb2021) [2, 26]: -0.3458
KIKQIINMWQ [JG2]	1	-0.4604	9363 RLU /s	–	14.55	0.3464	–	–	–	medium	-0.4604	41% and 40.68%	4.945	4.945	1 (ThT. Cat is 1, if Rel. ThT >2)	–	–	0.3464	–	40.68%	TEM: 1= fibrils, 0= aggregates (micelle), 0.5 = aggregates and fibrils, -1 = nothing obersved, STD prep ([1]; FigS26): 1; Rel-to EFC [2, 21]: 0.3464; n-fold to virus [2, 22]: 14.5544; Rel-to EFC (Feb-2021) [2, 24]: 0.3464; n-fold to virus (Feb2021) [2, 25]: 14.55; Log10 of Rel to EFC (Feb2021) [2, 26]: -0.4604; Tht category (> 1.5 to blank = +) ([4]; FigS26): 1 (Tht category (> 1.5 to blank = +))
KLKLQLL [TG4 / (KM2)]	1	-2.156	163.3 RLU /s	0.006983	0.2934	0.006983	–	–	–	low	-2.156	0%	0.8415	0.8415	0 (ThT-inactive (N-Fold <2))	–	–	–	–	–	infectivity [2, 23]: low
KLKQLL	–	–	–	–	–	–	–	–	–	–	–	–	–	–	–	–	–	–	–	–	TEM 2cat ([1]; Fig S10 panel D): 0; TEM 2cat ([1]; FigS12 panel A, fibril category by TEM): 0; Fibril ([1]; FigS12 panel B, TEM): 0; Fibril / Fibril Formation ([1]; TEM, 1 mg/mL, uranyl acetate stain, qualitative): 0; Fibril ([1]; TEM, 1 = fibrils present, 0 = non-fibrillar): 0; Fibril ([1]; TEM, 1 = fibrils present, 0 = non-fibrillar structures): 0; Rel-EFC ([2]; 1.3 µM peptide, infection relative to EF-C (QCKIKQIINMWQ = 1)): 0,01; Log10 Infection Rel EFC ([2]; 1.3 µM peptide, log10 of infection relative to EF-C): -2,13; Log Infectivity ([2]; Fig. S7 panel A (plotted against β-sheet content), Log10 infection relative to EF-C, TZM-bl cells, asymmetric std dev errors): -2.131; Log10 Infection Rel EF-C ([2]; Log10 of infection rate relative to EF-C, Figure 3A source data): -2.13; Log10 Infection Rel EF-C ([2]; infection rate relative to EF-C, log10, data of Figure 2D): -2.131; Log10 Infection Rel EF-C ([2]; infection rate relative to EF-C, log10, source data of Figure 2C): -2.131; b -sheet / % ([3]; Fig. S7 panel A, β-sheet content by ATR-FT-IR): 31.78%; Tht category (> 2 to blank = +) ([4]; Fig S10 panel D): 0 (ThT-inactive (N-Fold <2)); Tht category (> 2 to blank = +) ([4]; FigS12 panel A): 0 (ThT-inactive (N-Fold <2)); ThT Cat, ([4]; FigS12 panel B): 0 (ThT-inactive (N-Fold <2)); ThT Cat, ([4]; ThT category, 1 if Rel. ThT >2): 0 (ThT-inactive (N-Fold <2)); ThT Cat. ([4]; ThT fluorescence category, 1 if Rel. ThT >2): 0 (ThT-inactive (N-Fold <2)); ThT Cat. / ThT-Fluorescence (categorical) ([4]; ThT-active if fluorescence at least twice the control): 0 (ThT-inactive (N-Fold <2))
